From patent US20210115104A1, “AMYLIN ANALOGUES” (Zealand Pharma A/S, priority 2015, published 2021)
*1 amine or outer side, *2 acyl side, *3 side chain or, on linkers, in order; H or OH if unused. Where a SMILES comes first, the peptide text is derived from it. Bridges are numbered along the chain shown (N, C = ends). [ ]: non-standard residue; d: D form. The star is where a group is joined. C20 diacid = O=C(O)CCCCCCCCCCCCCCCCCCC(=O)*; γGlu = O=C(O)[C@H](CCC(=O)[*:2])N[*:1]; Hyp = O=C(O)[C@@H]1C[C@@H](O)CN1; NMeI = CC[C@H](C)[C@H](NC)C(=O)O; Sar = CNCC(=O)O

What was measured:
[1] = target: T1, human amylin receptor 3 (hAMYR3), hCTR2 co-expressed with hRAMP3 (Homo sapiens, UniProt O60896+P30988); experiment: hAMYR3 cAMP assay (AlphaScreen) in COS7 cells; type: cell-based; details: cAMP induction, COS7 cells expressing hAMYR3; Table 1; read-out: hAMYR3 EC50
T1 construct: expressed in transfected cells
T1 sequence (P30988 25-474): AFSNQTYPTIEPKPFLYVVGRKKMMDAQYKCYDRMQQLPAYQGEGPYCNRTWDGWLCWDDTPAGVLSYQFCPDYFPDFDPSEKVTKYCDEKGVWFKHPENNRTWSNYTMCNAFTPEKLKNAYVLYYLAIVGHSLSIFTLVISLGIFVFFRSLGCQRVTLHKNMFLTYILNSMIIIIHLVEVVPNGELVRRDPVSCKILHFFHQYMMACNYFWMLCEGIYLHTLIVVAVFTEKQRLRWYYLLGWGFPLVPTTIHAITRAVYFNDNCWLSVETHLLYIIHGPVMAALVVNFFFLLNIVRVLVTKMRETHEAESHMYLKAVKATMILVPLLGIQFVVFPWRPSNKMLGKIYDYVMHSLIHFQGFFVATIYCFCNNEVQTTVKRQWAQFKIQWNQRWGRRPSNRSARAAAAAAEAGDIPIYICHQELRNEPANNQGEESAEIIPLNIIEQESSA
T1 sequence (O60896 24-148 partner): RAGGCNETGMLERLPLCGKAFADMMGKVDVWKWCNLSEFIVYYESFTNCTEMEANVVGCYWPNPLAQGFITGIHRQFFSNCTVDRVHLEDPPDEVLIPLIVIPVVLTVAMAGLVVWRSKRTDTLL
Excerpt: The cell line COS7, originating from African Green Monkey kidney fibroblast cells, was used for establishment of the stable cell lines described below. The COS7 cellular background was used due to it being RAMP naïve, and as such it provides the best available system for testing of the monomeric hCTR and different heterodimeric amylin receptor subtypes functionally generated by introduction of the individual RAMPs.
A cell line expressing the human amylin receptor 3 (hAMYR3) was generated in the COS7 cellular background as stable clones. In brief, hCTR2 (GI:4502547) and hRAMP3 (GI:118572586) were amplified by PCR using primers encoding terminal restriction sites for subcloning. The 5′-end primers additionally encoded a near Kozak consensus sequence to ensure efficient translation. The fidelity of the DNA encoding the receptor was confirmed by DNA sequencing. The PCR products encoding the receptor were subcloned into a proprietary tri-cistronic mammalian expression vector with RAMP3, hCTR2 and neomycin (G418) resistance marker. The mammalian expression vector encoding the receptor was transfected into COS7 cells by a standard liposome transfection method. 48 hours post-transfection, cells were seeded for limited dilution cloning and selected with 1 mg/ml G418 in the culture medium. After 3 weeks, surviving colonies of hAMY3R-expressing cells were picked, propagated and tested in the amylin efficacy assay as described in Example 3 below. The functional generation of the amylin receptor phenotype was verified in the efficacy assay by a left-shifted efficacy response to amylin relative to monomeric calcitonin receptor, and one hAMYR3-expressing clone was chosen for compound profiling.
In vitro activity of test peptides at the hCTR2 and hAMYR3 receptors was assessed by measuring the induction of cAMP following stimulation of the receptor using the AlphaScreen® cAMP Assay kit from Perkin-Elmer.
Briefly, COS7 cells expressing hCTR2 (see Example 2, above) were seeded at 30-40,000 cells per well in 96-well microtiter plates coated with 0.01% poly-L-lysine, and grown for 1 day in culture in 100 μl growth medium [DMEM, 10% FCS, Penicillin (100 IU/ml), Streptomycin (100 μg/ml)]. On the day of analysis, growth medium was removed and the cells were washed once with 200 μl Tyrode buffer [Tyrode's Salts (9.6 g/I), 10 mM HEPES, pH 7.4]. Cells were incubated in 100 μl Tyrode buffer containing increasing concentrations of test peptides, 100 µM IBMX and 0.1% casein for 15 min at 37° C. The reaction was stopped by carefully decanting off the compound/buffer medium and replacing it with lysis/detection buffer (80 μl 0.1% w/v BSA, 5 mM HEPES, 0.3% v/v Tween-20 in deionized water). After incubation at room temperature for 10 min., the cAMP content of the resulting cell lysate was estimated according to the AlphaScreen® cAMP Assay manufacturer's instructions. EC50 values were estimated by computer-aided curve fitting using the 4-parameter logistic (4PL) non-linear model.

[2] = Assessment of physical stability (Thioflavin T fibrillation); type: physicochemical; set-up: key: FND = fibrillation not detected; FD = fibrillation detected; details: 1 mg/ml, 40° C., ThT
Method in brief: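 1 mg/ml peptide with 40 μM ThT in 50 mM phosphate pH 7.0, 50 mM histidine pH 7.0 or 50 mM acetate pH 4.0, in triplicate. Fluorescence read every 10 min after 300 s agitation over 96 h at 40 °C. Lag-time (h) is the intersection of linear fits to stable and growth phases.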

EC50 [1] [nM] | Fibrillation pH 4.0 (Ac) ([2]; 50 mM acetate buffer pH 4.0, 96 hours) | Fibrillation pH 7.0 (His) ([2]; 50 mM histidine buffer pH 7.0, 96 hours) | Fibrillation pH 7.0 (Phos.) ([2]; 50 mM phosphate buffer pH 7.0, 96 hours) | SMILES
0.59 | FND | FD | FND | CC[C@H](C)[C@@H](C(=O)N[C@@H](CC(C)C)C(=O)N[C@@H](CO)C(=O)N[C@@H](CO)C(=O)N[C@H](C(=O)N[C@@H](CCC(=O)O)C(=O)N[C@H](C(=O)NCC(=O)N[C@@H](CO)C(=O)N[C@@H](CCC(=O)O)C(=O)N[C@H](C(=O)N1CCC[C@H]1C(N)=O)[C@@H](C)O)C(C)C)[C@@H](C)O)N(C)C(=O)[C@H](C)NC(=O)CN(C)C(=O)[C@H](Cc1ccccc1)NC(=O)[C@H](CO)NC(=O)[C@H](CO)NC(=O)[C@H](CCCNC(=N)N)NC(=O)[C@@H](NC(=O)[C@H](CC(C)C)NC(=O)[C@H](Cc1ccccc1)NC(=O)[C@H](Cc1c[nH]cn1)NC(=O)[C@H](C)NC(=O)[C@H](CC(C)C)NC(=O)[C@H](CCCNC(=N)N)NC(=O)[C@H](CCC(=O)O)NC(=O)[C@@H](NC(=O)[C@H](C)NC(=O)[C@@H]1CSSC[C@H](NC(=O)[C@H](CCCNC(=N)N)NC(=O)CC[C@H](NC(=O)CCCCCCCCCCCCCCCCCCC(=O)O)C(=O)O)C(=O)NCC(=O)N[C@@H]([C@@H](C)O)C(=O)N[C@@H](C)C(=O)N[C@@H]([C@@H](C)O)C(=O)N1)[C@@H](C)O)C(C)C [Compound 22, [19CD]-isoGlu-R-C( )-GTAT-C( )-ATERLAHFLVRSSF-Gly(Me)-A-Ile(Me)-LSSTEVGSETP-NH2] ({C20 diacid-γGlu}-RCGTATCATERLAHFLVRSSF[Sar]A[NMeI]LSSTEVGSETP-NH2; disulfide 2-7)
0.34 |  |  |  | CC[C@H](C)[C@@H](C(=O)N[C@@H](CC(C)C)C(=O)N[C@@H](CO)C(=O)N[C@@H](CO)C(=O)N[C@H](C(=O)N[C@@H](CCC(=O)O)C(=O)N[C@H](C(=O)NCC(=O)N[C@@H](CO)C(=O)N[C@@H](Cc1ccccc1)C(=O)N[C@H](C(=O)N1C[C@H](O)C[C@H]1C(N)=O)[C@@H](C)O)C(C)C)[C@@H](C)O)N(C)C(=O)[C@H](C)NC(=O)CN(C)C(=O)[C@H](Cc1ccccc1)NC(=O)[C@H](CO)NC(=O)[C@H](CO)NC(=O)[C@H](CCCNC(=N)N)NC(=O)[C@@H](NC(=O)[C@H](CC(C)C)NC(=O)[C@H](Cc1ccccc1)NC(=O)[C@H](CC(=O)O)NC(=O)[C@H](C)NC(=O)[C@H](CC(C)C)NC(=O)[C@H](CCCNC(=N)N)NC(=O)[C@H](CCC(=O)O)NC(=O)[C@@H](NC(=O)[C@H](C)NC(=O)[C@@H]1CSSC[C@H](NC(=O)[C@H](CCCNC(=N)N)NC(=O)CC[C@H](NC(=O)CCCCCCCCCCCCCCCCCCC(=O)O)C(=O)O)C(=O)NCC(=O)N[C@@H]([C@@H](C)O)C(=O)N[C@@H](C)C(=O)N[C@@H]([C@@H](C)O)C(=O)N1)[C@@H](C)O)[C@@H](C)O [Compound 42, [19CD]-isoGlu-R-C( )-GTAT-C( )-ATERLADFLTRSSF-Gly(Me)-A-Ile(Me)-LSSTEVGSFT-Hyp-NH2] ({C20 diacid-γGlu}-RCGTATCATERLADFLTRSSF[Sar]A[NMeI]LSSTEVGSFT[Hyp]-NH2; disulfide 2-7)
